Where “and” joins values, the source holds several entries; their conditions need not be identical. Identical values can stand only once.
System: AsPC-1 cells
Test: Cell proliferation assay, chemodrug + ATR inhibitor (Incucyte confluence, 72 h);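 note: underlying read-out for every value is AsPC-1 confluence after 72 h incubation at 37 °C and 5% CO2, divided by that well's starting confluence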
Conditions: for Curve slope / Curve bottom / Curve top: AsPC1, fitted dose-response curve; for Curve bottom / Curve top: relative response; for AsPC-1 viability (ratio) / AsPC-1 viability mean (ratio) / Raw data (confluence at 72 h/confluence at 0 h): Gartisertib experiment
[1] = Experiment ATRi (ATR inhibitor alone)
[2] = replicate R1, titrated drug dose 3 nM
[3] = replicate R1, titrated drug dose 10 nM
[4] = replicate R1, titrated drug dose 30 nM
[5] = replicate R1, titrated drug dose 100 nM
[6] = replicate R1, titrated drug dose 300 nM
[7] = replicate R1, titrated drug dose 1000 nM
[8] = replicate R1, titrated drug dose 3000 nM
[9] = replicate R1, titrated drug dose 10000 nM
[10] = replicate R2, titrated drug dose 3 nM
[11] = replicate R2, titrated drug dose 10 nM
[12] = replicate R2, titrated drug dose 30 nM
[13] = replicate R2, titrated drug dose 100 nM
[14] = replicate R2, titrated drug dose 300 nM

Protocol: Cells were seeded at 5000 cells/well into 96-well flat bottom plates (Eppendorf) and allowed to attach overnight. […] Cells were incubated for 72 h at 37 °C and 5% CO2. Cell confluence readouts at 72 h were either normalized to their initial confluence using the Incucyte software (AsPC-1) or used without prior normalization (all others). […] Each experiment was performed in triplicates, the data was plotted as mean ± standard deviation (s.d.).

## Nc1nn2cc(F)cnc2c1C(=O)Nc1cncc(F)c1N1CCC(C(=O)N2CCN(C3COC3)CC2)CC1 [Gartisertib]
[1]
  Curve slope: 1.84 and 2.11 and 1.85
  Curve bottom: 0.97 and 0.99 and 1.02
  Curve top: 0.32 and 0.29 and 0.28
Experiment GEM+ATRi_dose1
  Curve slope: 1.70 and 3.25 and 2.63
  Curve bottom: 0.97 and 0.89 and 0.93
  Curve top: 0.47 and 0.39
Experiment GEM+ATRi_dose2
  Curve slope: 1.86 and 2.66 and 1.99
  Curve bottom: 1.01 and 0.93 and 0.97
  Curve top: 0.45 and 0.36
Experiment GEM+ATRi_dose3
  Curve bottom: 0.93 and 0.90 and 0.88
  Curve top: 0.47 and 0.36
GEM 0 nM, ATRi 3 nM
  Response: 2.96 and 3.43 and 3.57
GEM 0 nM, ATRi 10 nM
  Response: 3.28 and 3.77 and 3.92
GEM 0 nM, ATRi 30 nM
  Response: 3.05 and 3.68
GEM 1 nM + ATRi 3 nM
  Response: 3.14 and 3.82 and 3.86
GEM 1 nM + ATRi 10 nM
  Response: 3.23 and 3.93 and 3.90
GEM 1 nM + ATRi 30 nM
  Response: 2.84 and 3.74
GEM 3 nM + ATRi 3 nM
  Response: 3.14 and 3.83 and 3.74
GEM 3 nM + ATRi 10 nM
  Response: 3.01 and 3.70 and 3.66
GEM 3 nM + ATRi 30 nM
  Response: 3.03 and 3.39
GEM 10 nM + ATRi 3 nM
  Response: 2.77 and 3.58 and 3.45
GEM 10 nM + ATRi 10 nM
  Response: 2.54 and 2.78 and 2.71
GEM 10 nM + ATRi 30 nM
  Response: 1.88 and 1.90 and 1.98
GEM 30 nM + ATRi 3 nM
  Response: 2.10 and 2.28 and 2.14
GEM 30 nM + ATRi 10 nM
  Response: 1.63 and 1.61 and 1.64
GEM 30 nM + ATRi 30 nM
  Response: 1.75 and 1.65 and 1.57
GEM 100 nM + ATRi 3 nM
  Response: 1.68 and 1.66 and 1.64
GEM 100 nM + ATRi 10 nM
  Response: 1.57 and 1.53 and 1.56
GEM 100 nM + ATRi 30 nM
  Response: 1.53 and 1.59 and 1.47
GEM 300 nM + ATRi 3 nM
  Response: 1.57 and 1.60 and 1.54
GEM 300 nM + ATRi 10 nM
  Response: 1.52 and 1.50
GEM 300 nM + ATRi 30 nM
  Response: 1.48 and 1.44 and 1.43
GEM 1000 nM + ATRi 3 nM
  Response: 1.57 and 1.62
GEM 1000 nM + ATRi 10 nM
  Response: 1.40 and 1.55 and 1.43
GEM 1000 nM + ATRi 30 nM
  Response: 1.36 and 1.45 and 1.40
GEM 3000 nM + ATRi 3 nM
  Response: 1.36 and 1.58 and 1.49
GEM 3000 nM + ATRi 10 nM
  Response: 1.38 and 1.44 and 1.37
GEM 3000 nM + ATRi 30 nM
  Response: 1.32 and 1.42 and 1.36
[2]
  AsPC-1 viability (ratio): 0.9 ratio
  AsPC-1 viability mean (ratio): 0.59 ratio
  Raw data (confluence at 72 h/confluence at 0 h): 2.89
[3]
  AsPC-1 viability (ratio): 1.01 ratio
  AsPC-1 viability mean (ratio): 0.99 ratio
  Raw data (confluence at 72 h/confluence at 0 h): 3.24
[4]
  AsPC-1 viability (ratio): 0.95 ratio
  AsPC-1 viability mean (ratio): 0.48 ratio
  Raw data (confluence at 72 h/confluence at 0 h): 3.04
[5]
  AsPC-1 viability (ratio): 0.63 ratio
  AsPC-1 viability mean (ratio): 0.45 ratio
  Raw data (confluence at 72 h/confluence at 0 h): 2.03
[6]
  AsPC-1 viability (ratio): 0.44 ratio
  AsPC-1 viability mean (ratio): 0.4 ratio
  Raw data (confluence at 72 h/confluence at 0 h): 1.4
[7]
  AsPC-1 viability (ratio): 0.37 ratio
  AsPC-1 viability mean (ratio): 0.54 ratio
  Raw data (confluence at 72 h/confluence at 0 h): 1.19
[8]
  AsPC-1 viability (ratio): 0.33 ratio
  AsPC-1 viability mean (ratio): 0.49 ratio
  Raw data (confluence at 72 h/confluence at 0 h): 1.04
[9]
  AsPC-1 viability (ratio): 0.27 ratio
  AsPC-1 viability mean (ratio): 0.45 ratio
  Raw data (confluence at 72 h/confluence at 0 h): 0.87
[10]
  AsPC-1 viability (ratio): 1.01 ratio
  AsPC-1 viability mean (ratio): 0.6 ratio
  Raw data (confluence at 72 h/confluence at 0 h): 4.15
[11]
  AsPC-1 viability (ratio): 1 ratio
  AsPC-1 viability mean (ratio): 1.08 ratio
  Raw data (confluence at 72 h/confluence at 0 h): 4.13
[12]
  AsPC-1 viability (ratio): 0.94 ratio
  AsPC-1 viability mean (ratio): 0.49 ratio
  Raw data (confluence at 72 h/confluence at 0 h): 3.88
[13]
  AsPC-1 viability (ratio): 0.73 ratio
  AsPC-1 viability mean (ratio): 0.44 ratio
  Raw data (confluence at 72 h/confluence at 0 h): 3.03
[14]
  AsPC-1 viability (ratio): 0.38 ratio
  AsPC-1 viability mean (ratio): 0.4 ratio
  Raw data (confluence at 72 h/confluence at 0 h): 1.58
Replicate R2, titrated drug dose 1000 nM
  AsPC-1 viability (ratio): 0.31 ratio

— PMC11876601 (Molecular Systems Biology, 2025)
